Reference: the supplement of paper PMC12494721
Where a name gives a salt, the structure may show the parent alone.

Tests used:
Conditions in all cases: incubation time: 27 h, anaerobic, 37 °C
[1] = tested on: Clostridium sporogenes DSM 1664; experiment: growth (OD595) fold change vs plate DMSO controls (fold change (ratio)); higher = more growth
[2] = tested on: Clostridium sporogenes DSM 1664; experiment: fold change of Tryptamine concentration vs plate DMSO controls (fold change (ratio)); higher = more amine produced
[3] = tested on: Klebsiella aerogenes DSM 30053; experiment: growth (OD595) fold change vs plate DMSO controls (fold change (ratio)); higher = more growth
[4] = tested on: Klebsiella aerogenes DSM 30053; experiment: fold change of Histamine concentration vs plate DMSO controls (fold change (ratio)); higher = more amine produced
Method: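 Dose-response follow-up: bacteria (E. coli IAI1, K. aerogenes DSM 30053, C. sporogenes DSM 1664, R. gnavus DSM 108212) were grown anaerobically in mGAM at 37 °C for 27 h with compound at 0.6125-20 µM. Amines were measured in the whole culture by targeted LC-MS/MS. Metabolite fold change and OD595 fold change are relative to plate DMSO controls; n=2 biological replicates. OD fold changes are not clipped, so slightly negative values mean no growth.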

[5] = tested on: Klebsiella aerogenes DSM 30053; experiment: fold change of Putrescine concentration vs plate DMSO controls (fold change (ratio)); higher = more amine produced
[6] = tested on: Klebsiella aerogenes DSM 30053; experiment: fold change of Cadaverine concentration vs plate DMSO controls (fold change (ratio)); higher = more amine produced
[7] = tested on: Ruminococcus gnavus DSM 108212; experiment: growth (OD595) fold change vs plate DMSO controls (fold change (ratio)); higher = more growth
[8] = tested on: Ruminococcus gnavus DSM 108212; experiment: fold change of Tryptamine concentration vs plate DMSO controls (fold change (ratio)); higher = more amine produced
[9] = tested on: Ruminococcus gnavus DSM 108212; experiment: fold change of 2-Phenylethylamine concentration vs plate DMSO controls (fold change (ratio)); higher = more amine produced

NCc1ccccc1CC(=O)N[C@@H]1C(=O)N2C(C(=O)O)=C(CSc3nnnn3CC(=O)O)CS[C@H]12 [Ceforanide]
Conditions | fold change of Tryptamine concentration, [2] | growth, [1]
0.6125 µM | 0.989 | 0.842
1.25 µM | 1 | 0.767
2.5 µM | 1.04 | 0.564
5 µM | 0.576 | 0.36
10 µM | 0.035 | -0.0035
20 µM | 0.0236 | -0.0325

CC=CC1=C(C(=O)O)N2C(=O)[C@@H](NC(=O)[C@H](N)c3ccc(O)cc3)[C@H]2SC1 [Cefprozil]
Conditions | fold change of Tryptamine concentration, [2] | growth, [1]
0.6125 µM | 1 | 1.1
1.25 µM | 0.973 | 0.85
2.5 µM | 1 | 1.02
5 µM | 0.974 | 0.79
10 µM | 0.926 | 0.573
20 µM | 0.722 | 0.194

CC(=O)OCC1=C(C(=O)O)N2C(=O)[C@@H](NC(=O)Cc3cccs3)[C@H]2SC1 [Cephalothin sodium salt]
Conditions | fold change of Tryptamine concentration, [2] | growth, [1]
0.6125 µM | 0.905 | 0.841
1.25 µM | 0.0953 | 0.629
2.5 µM | 0.0223 | -0.0397
5 µM | 0.0219 | -0.0266
10 µM | 0.0236 | -0.0343
20 µM | 0.0234 | -0.0372

CC(C)/N=c1\cc2n(-c3ccc(Cl)cc3)c3ccccc3nc-2cc1Nc1ccc(Cl)cc1 [Clofazimine]
Conditions | fold change of Tryptamine concentration, [2] | growth, [1]
0.6125 µM | 0.975 | 1.11
1.25 µM | 0.893 | 1.34
2.5 µM | 0.681 | 1.22
5 µM | 0.365 | 0.64
10 µM | 0.379 | 0.578
20 µM | 0.0193 | -0.0109

Cc1cc(C(C#N)c2ccc(Cl)cc2)c(Cl)cc1NC(=O)c1cc(I)cc(I)c1O (stereo not drawn) [Closantel]
Conditions | fold change of Tryptamine concentration, [2] | growth, [1]
0.6125 µM | 0.999 | 0.882
1.25 µM | 1.02 | 0.866
2.5 µM | 0.991 | 0.792
5 µM | 0.895 | 0.749
10 µM | 0.367 | 0.364
20 µM | 0.0184 | -0.0258

Oc1c(Cl)cc(Cl)c(Cl)c1Cc1c(O)c(Cl)cc(Cl)c1Cl [Hexachlorophene]
Conditions | fold change of Tryptamine concentration, [2] | growth, [1]
0.6125 µM | 1.1 | 1.05
1.25 µM | 1.03 | 0.819
2.5 µM | 1.09 | 0.779
5 µM | 0.693 | 0.711
10 µM | 0.0218 | -0.0128
20 µM | 0.0164 | -0.032

N[C@@H](C(=O)N[C@@H]1C(=O)N2C(C(=O)O)=C(Cl)CC[C@H]12)c1ccccc1 [Loracarbef]
Conditions | fold change of Tryptamine concentration, [2] | growth, [1]
0.6125 µM | 0.974 | 1.15
1.25 µM | 0.86 | 0.723
2.5 µM | 0.0468 | -0.0147
5 µM | 0.0243 | -0.0473
10 µM | 0.0223 | -0.0388
20 µM | 0.0215 | -0.0407

O=C1NCCN1c1ncc([N+](=O)[O-])s1 [Niridazole]
Conditions | fold change of Tryptamine concentration, [2] | growth, [1]
0.6125 µM | 0.708 | 1.08
1.25 µM | 0.607 | 1.15
2.5 µM | 0.181 | 0.588
5 µM | 0.0568 | 0.258
10 µM | 0.0233 | -0.0146
20 µM | 0.018 | -0.0213

CC(=O)Oc1ccccc1C(=O)Nc1ncc([N+](=O)[O-])s1 [Nitazoxanide]
Conditions | fold change of Tryptamine concentration, [2] | growth, [1]
0.6125 µM | 1.01 | 1.24
1.25 µM | 0.989 | 1.23
2.5 µM | 0.993 | 1.29
5 µM | 0.314 | 0.809
10 µM | 0.0174 | -0.0196
20 µM | 0.0175 | -0.0243

O=[N+]([O-])c1ccc(O)c2ncccc12 [Nitroxoline]
Conditions | fold change of Cadaverine concentration, [6] | fold change of Histamine concentration, [4] | fold change of Putrescine concentration, [5] | growth, [3]
0.6125 µM | 0.967 | 0.949 | 1.04 | 0.817
1.25 µM | 0.966 | 0.911 | 1.03 | 0.815
2.5 µM | 0.935 | 1.16 | 1.02 | 0.882
5 µM | 0.971 | 0.926 | 1.06 | 0.884
10 µM | 0.966 | 1.02 | 0.997 | 0.646
20 µM | 0.977 | 0.852 | 1.01 | 0.584

Cc1ncc([N+](=O)[O-])n1CC(C)O (stereo not drawn) [Secnidazole]
Conditions | fold change of Tryptamine concentration, [2] | growth, [1]
0.6125 µM | 0.901 | 0.982
1.25 µM | 0.773 | 1.11
2.5 µM | 0.735 | 1.16
5 µM | 0.035 | 0.156
10 µM | 0.026 | -0.0233
20 µM | 0.0204 | -0.023

CC1(C)S[C@@H]2[C@H](NC(=O)[C@H](N)c3ccccc3)C(=O)N2[C@H]1C(=O)OC1OC(=O)c2ccccc21 (stereo partly drawn) [Talampicillin hydrochloride]
Conditions | fold change of 2-Phenylethylamine concentration, [9] | fold change of Cadaverine concentration, [6] | fold change of Histamine concentration, [4] | fold change of Putrescine concentration, [5] | fold change of Tryptamine concentration, [8] | growth, [3] | growth, [7]
0.6125 µM | 0.103 | 0.97 | 0.999 | 1.03 | 0.121 | 0.802 | 1.73
1.25 µM | 0.105 | 0.967 | 0.862 | 1.05 | 0.116 | 0.804 | 0.81
2.5 µM | 0.112 | 0.958 | 1.31 | 1.01 | 0.136 | 0.905 | 0.918
5 µM | 0.1 | 1.03 | 1.27 | 1.08 | 0.13 | 1.1 | 1.33
10 µM | 0.138 | 1.09 | 0.959 | 1.11 | 0.174 | 1.1 | 0.729
20 µM | 0.102 | 1.17 | 0.912 | 1.12 | 0.135 | 0.477 | 0.199

C[C@]1(Cn2ccnn2)[C@H](C(=O)O)N2C(=O)C[C@H]2S1(=O)=O [Tazobactam]
Conditions | fold change of Tryptamine concentration, [2] | growth, [1]
0.6125 µM | 1 | 1.01
1.25 µM | 1.01 | 1.05
2.5 µM | 1.11 | 1.01
5 µM | 1.08 | 1.01
10 µM | 0.984 | 0.648
20 µM | 0.921 | 0.353
